Values after ≈ are worked out from the molar mass of the structure shown. Where two headings read alike, the source gives them in different places. Starred links: 1 amine or outer side, 2 acyl side, 3 side chain; linkers in the order of their positions; H or OH if unused. Positions of bridges follow the written chain, without caps; N, C: chain ends. Residues, ends and D or L forms follow the SMILES beside them. *: point of attachment. C20 diacid = O=C(O)CCCCCCCCCCCCCCCCCCC(=O)*; γGlu = O=C(O)[C@H](CCC(=O)[*:2])N[*:1]
Tests used:
[1] = molecular target: T1, human calcitonin receptor (Homo sapiens, UniProt P30988); assay: Assay (II)a functional CRE-luciferase assay, human calcitonin receptor; assay type: cell-based; details: Table 7; human calcitonin (CTa) receptor
T1 construct: expressed in transfected cells; host or cells: BHK570
T1 sequence (P30988 25-474): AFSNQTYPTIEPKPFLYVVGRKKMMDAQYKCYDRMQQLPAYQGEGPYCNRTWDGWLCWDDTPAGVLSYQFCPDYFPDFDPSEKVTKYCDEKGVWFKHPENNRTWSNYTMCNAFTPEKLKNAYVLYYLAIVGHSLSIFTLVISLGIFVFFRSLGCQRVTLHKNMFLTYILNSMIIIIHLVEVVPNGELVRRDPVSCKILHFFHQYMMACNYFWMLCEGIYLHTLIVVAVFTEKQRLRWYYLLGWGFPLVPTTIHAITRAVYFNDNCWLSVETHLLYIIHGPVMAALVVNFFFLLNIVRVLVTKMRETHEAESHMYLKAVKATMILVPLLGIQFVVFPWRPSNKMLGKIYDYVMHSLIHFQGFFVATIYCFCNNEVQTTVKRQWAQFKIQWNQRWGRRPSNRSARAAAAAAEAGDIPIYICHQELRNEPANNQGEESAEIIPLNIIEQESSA

[2] = Assay (III) ThT fibrillation assay for physical stability; assay type: physicochemical
Summary of the method: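 Freshly prepared formulations, pH-adjusted, with 1 μM ThT; four or eight replicates incubated at 37 °C under 960 rpm orbital shaking. Fluorescence (ex 444/em 485 nm) read every 20 min; […]. Peptide concentration measured by RP-HPLC before and after the run.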

[3] = molecular target: T2, human amylin receptor (amylin 3(a) receptor: human calcitonin receptor + RAMP-3) (Homo sapiens, UniProt O60896+P30988); assay: Assay (II)a functional CRE-luciferase assay, human amylin receptor; assay type: cell-based; details: Table 2; BHK amylin 3(a)-receptor/CRE-luc cells
T2 construct: expressed in transfected cells; host or cells: BHK570
T2 sequence (P30988 25-474): T1 sequence (P30988 25-474)
T2 sequence (O60896 24-148 partner): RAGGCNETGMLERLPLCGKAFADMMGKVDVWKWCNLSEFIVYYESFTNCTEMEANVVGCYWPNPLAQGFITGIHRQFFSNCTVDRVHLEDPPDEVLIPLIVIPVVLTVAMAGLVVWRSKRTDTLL

[4] = Assay (IV) determination of solubility; assay type: physicochemical
Summary of the method: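 Solubility was profiled across pH 3.0–8.0 after 18 hours at room temperature: a ~500 nmol/ml aqueous polypeptide solution was diluted 1:1 into 100 mM glycylglycine or bistrispropane buffers. After centrifugation, HPLC gave the dissolved concentration.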

[5] = bistrispropane buffer, pH 6, pH 6.0, read-out: Solubility pH 6.0
[6] = bistrispropane buffer, pH 6.5, pH 6.5, read-out: Solubility pH 6.5
[7] = bistrispropane buffer, pH 7, pH 7.0, 18 hours at room temperature, Table 3, read-out: Solubility pH 7.0
[8] = bistrispropane buffer, pH 7, pH 7.0, read-out: Solubility pH 7.0
[9] = bistrispropane buffer, pH 7.5, pH 7.5, read-out: Solubility pH 7.5
[10] = bistrispropane buffer, pH 8, pH 8.0, read-out: Solubility pH 8.0
[11] = glycylglycine buffer, pH 3, pH 3.0, read-out: Solubility pH 3.0
[12] = glycylglycine buffer, pH 4, pH 4.0, 18 hours at room temperature, Table 2, read-out: Solubility pH 4.0
[13] = glycylglycine buffer, pH 4, pH 4.0, read-out: Solubility pH 4.0
[14] = glycylglycine buffer, pH 5, pH 5.0, read-out: Solubility pH 5.0

EC50 [1] [nM]	ThT pH 4.0 lag time (h) ([2]; ThT fibrillation assay)	EC50 [3] [nM]	solubility at 18 h [4, 5] [µM]	solubility at 18 h [4, 6] [µM]	solubility at 18 h [4, 7] [µM]	solubility at 18 h [4, 8] [µM]	solubility at 18 h [4, 9] [µM]	solubility at 18 h [4, 10] [µM]	solubility at 18 h [4, 11] [µM]	solubility at 18 h [4, 12] [µM]	solubility at 18 h [4, 13] [µM]	solubility at 18 h [4, 14] [µM]	other results	SMILES
0.083	>45	0.0805	178 (≈ 776 µg/mL)	> 200	> 200	> 200	> 200	> 200	> 200	> 200	> 200	> 200	ThT pH 4.0 lag time ([2]; Table 8): >45 h; ThT pH 4.0 lag time ([2]; Table 9): >45 h; ThT pH 4.0 lag time ([2]; ThT fibrillation assay): >45 h; solubility at 18 h ([4]; bistrispropane buffer, pH 7, pH 7.0, Table 8, read-out: Solubility pH 7.0): > 200 µM; solubility at 18 h ([4]; bistrispropane buffer, pH 7, pH 7.0, Table 9, read-out: Solubility pH 7.0): > 200 µM; solubility at 18 h ([4]; bistrispropane buffer, pH 7.5, pH 7.5, Table 9, read-out: Solubility pH 7.5): > 200 µM	CC[C@H](C)[C@H](NC(=O)[C@@H]1CCCN1C(=O)CNC(=O)[C@H](Cc1ccccc1)NC(=O)[C@H](CC(N)=O)NC(=O)[C@H](CC(N)=O)NC(=O)[C@H](CO)NC(=O)[C@H](CO)NC(=O)[C@H](Cc1c[nH]cn1)NC(=O)[C@H](Cc1c[nH]cn1)NC(=O)[C@H](CC(C)C)NC(=O)[C@H](Cc1ccccc1)NC(=O)[C@H](CCC(=O)O)NC(=O)[C@H](C)NC(=O)[C@H](CC(C)C)NC(=O)[C@H](CCCCN)NC(=O)[C@H](CCC(N)=O)NC(=O)[C@@H](NC(=O)[C@H](C)NC(=O)[C@@H]1CSSC[C@H](NC(=O)[C@H](CCCCN)NC(=O)CC[C@H](NC(=O)CCCCCCCCCCCCCCCCCCC(=O)O)C(=O)O)C(=O)N[C@@H](CC(N)=O)C(=O)N[C@@H]([C@@H](C)O)C(=O)N[C@@H](C)C(=O)N[C@@H]([C@@H](C)O)C(=O)N1)[C@@H](C)O)C(=O)N[C@@H](CC(C)C)C(=O)N1CCC[C@H]1C(=O)N1CCC[C@H]1C(=O)N[C@H](C(=O)N[C@@H](CC(N)=O)C(=O)N[C@H](C(=O)NCC(=O)N[C@@H](CO)C(=O)N[C@@H](CC(N)=O)C(=O)N[C@H](C(=O)N1CCC[C@H]1C(N)=O)[C@@H](C)O)C(C)C)[C@@H](C)O [Example 145, N-alpha-[(S)-4-Carboxy-4-(19-carboxynonadecanoylamino)butyryl]-[Lys11,Glu14,His17,Pro37]-pramlintide] ({C20 diacid-γGlu}-KCNTATCATQKLAEFLHHSSNNFGPILPPTNVGSNTP-NH2; disulfide 2-7 (inferred))
0.198	13	0.272											solubility at 18 h ([4]; 18 h, pH 7, read-out: Solubility pH 7.0): 0 µM; solubility at 18 h ([4]; 18 h, pH 7.5, read-out: Solubility pH 7.5): 0 µM; solubility at 18 h ([4]; pH 3, Solubility pH 3.0): > 200 µM; solubility at 18 h ([4]; pH 4, Solubility pH 4.0): > 200 µM; solubility at 18 h ([4]; pH 4, Solubility pH 4.0 (μM)): > 200 µM; solubility at 18 h ([4]; pH 5, Solubility pH 5.0): > 200 µM; solubility at 18 h ([4]; pH 6, Solubility pH 6.0): > 200 µM; solubility at 18 h ([4]; pH 6.5, Solubility pH 6.5): 4 µM (≈ 19.2 µg/mL); solubility at 18 h ([4]; pH 8, Solubility pH 8.0): 13 µM (≈ 62.4 µg/mL)	CC[C@H](C)[C@H](NC(=O)[C@@H]1CCCN1C(=O)CNC(=O)[C@H](Cc1ccccc1)NC(=O)[C@H](CC(N)=O)NC(=O)[C@H](CC(N)=O)NC(=O)[C@H](CO)NC(=O)[C@H](CO)NC(=O)[C@H](Cc1c[nH]cn1)NC(=O)[C@H](Cc1c[nH]cn1)NC(=O)[C@H](CC(C)C)NC(=O)[C@H](Cc1ccccc1)NC(=O)[C@H](CCC(=O)O)NC(=O)[C@H](C)NC(=O)[C@H](CC(C)C)NC(=O)[C@H](CCCNC(=N)N)NC(=O)[C@H](CCC(N)=O)NC(=O)[C@@H](NC(=O)[C@H](C)NC(=O)[C@@H]1CSSC[C@H](NC(=O)[C@H](Cc2c[nH]cn2)NC(=O)[C@H](Cc2c[nH]cn2)NC(=O)[C@H](Cc2c[nH]cn2)NC(=O)CC[C@H](NC(=O)CCCCCCCCCCCCCCCCCCC(=O)O)C(=O)O)C(=O)N[C@@H](CC(N)=O)C(=O)N[C@@H]([C@@H](C)O)C(=O)N[C@@H](C)C(=O)N[C@@H]([C@@H](C)O)C(=O)N1)[C@@H](C)O)C(=O)N[C@@H](CC(C)C)C(=O)N1CCC[C@H]1C(=O)N[C@@H](Cc1c[nH]cn1)C(=O)N[C@H](C(=O)N[C@@H](CC(N)=O)C(=O)N[C@H](C(=O)NCC(=O)N[C@@H](CO)C(=O)N[C@@H](Cc1c[nH]cn1)C(=O)N[C@H](C(=O)N[C@@H](Cc1ccc(O)cc1)C(N)=O)[C@@H](C)O)C(C)C)[C@@H](C)O [Example 34, N-alpha-[(S)-4-Carboxy-4-(19-carboxynonadecanoylamino)butyryl]-His-His-[His1,Glu14,His17,His29,His35]-pramlintide] ({C20 diacid-γGlu}-HHHCNTATCATQRLAEFLHHSSNNFGPILPHTNVGSHTY-NH2; disulfide 4-9 (inferred))
0.0725	6.3	0.0845	> 200	> 200	> 200	> 200	> 200	> 200	> 200	> 200	> 200	> 200		CC[C@H](C)[C@H](NC(=O)[C@@H]1CCCN1C(=O)CNC(=O)[C@H](Cc1ccccc1)NC(=O)[C@H](CC(N)=O)NC(=O)[C@H](CC(N)=O)NC(=O)[C@H](CO)NC(=O)[C@H](CO)NC(=O)[C@H](Cc1c[nH]cn1)NC(=O)[C@@H](NC(=O)[C@H](CC(C)C)NC(=O)[C@H](Cc1ccccc1)NC(=O)[C@H](CCC(=O)O)NC(=O)[C@H](C)NC(=O)[C@H](CC(C)C)NC(=O)[C@H](CCCNC(=N)N)NC(=O)[C@H](CCC(N)=O)NC(=O)[C@@H](NC(=O)[C@H](C)NC(=O)[C@@H]1CSSC[C@H](NC(=O)[C@H](Cc2c[nH]cn2)NC(=O)CC[C@H](NC(=O)CCCCCCCCCCCCCCCCCCC(=O)O)C(=O)O)C(=O)N[C@@H](CC(N)=O)C(=O)N[C@@H]([C@@H](C)O)C(=O)N[C@@H](C)C(=O)N[C@@H]([C@@H](C)O)C(=O)N1)[C@@H](C)O)C(C)C)C(=O)N[C@@H](CC(C)C)C(=O)N1CCC[C@H]1C(=O)N1CCC[C@H]1C(=O)N[C@H](C(=O)N[C@@H](CC(N)=O)C(=O)N[C@H](C(=O)NCC(=O)N[C@@H](CO)C(=O)N[C@@H](CC(N)=O)C(=O)N[C@H](C(=O)N1CCC[C@H]1C(N)=O)[C@@H](C)O)C(C)C)[C@@H](C)O [Example 109, N-alpha-[(S)-4-Carboxy-4-(19-carboxynonadecanoylamino)butyryl]-[His1,Glu14,Pro37]-pramlintide] ({C20 diacid-γGlu}-HCNTATCATQRLAEFLVHSSNNFGPILPPTNVGSNTP-NH2; disulfide 2-7 (inferred); C-terminus assumed)
0.049	15.3	0.052	> 200	> 200	> 200	> 200	> 200	> 200	> 200	> 200	> 200	> 200		CC[C@H](C)[C@H](NC(=O)[C@@H]1CCCN1C(=O)CNC(=O)[C@H](Cc1ccccc1)NC(=O)[C@H](CC(N)=O)NC(=O)[C@H](CC(N)=O)NC(=O)[C@H](CO)NC(=O)[C@H](CO)NC(=O)[C@H](Cc1c[nH]cn1)NC(=O)[C@H](Cc1c[nH]cn1)NC(=O)[C@H](CC(C)C)NC(=O)[C@H](Cc1ccccc1)NC(=O)[C@H](CCC(=O)O)NC(=O)[C@H](C)NC(=O)[C@H](CC(C)C)NC(=O)[C@H](CCCNC(=N)N)NC(=O)[C@H](CCC(N)=O)NC(=O)[C@@H](NC(=O)[C@H](C)NC(=O)[C@@H]1CSSC[C@H](NC(=O)[C@H](Cc2c[nH]cn2)NC(=O)CNC(=O)CC[C@H](NC(=O)CCCCCCCCCCCCCCCCCCC(=O)O)C(=O)O)C(=O)N[C@@H](CC(N)=O)C(=O)N[C@@H]([C@@H](C)O)C(=O)N[C@@H](C)C(=O)N[C@@H]([C@@H](C)O)C(=O)N1)[C@@H](C)O)C(=O)N[C@@H](CC(C)C)C(=O)N1CCC[C@H]1C(=O)N1CCC[C@H]1C(=O)N[C@H](C(=O)N[C@@H](CC(N)=O)C(=O)N[C@H](C(=O)NCC(=O)N[C@@H](CO)C(=O)N[C@@H](CC(N)=O)C(=O)N[C@H](C(=O)N1CCC[C@H]1C(N)=O)[C@@H](C)O)C(C)C)[C@@H](C)O [Example 92, N-alpha-[(S)-4-Carboxy-4-(19-carboxynonadecanoylamino)butyryl]-Gly-[His1,Glu14,His17,Pro37]-pramlintide] ({C20 diacid-γGlu}-GHCNTATCATQRLAEFLHHSSNNFGPILPPTNVGSNTP-NH2; disulfide 3-8 (inferred); C-terminus assumed)

From patent publication US8722849B2, “Polypeptides” (Novo Nordisk A/S, priority 2011, dated 2014)
